# Assay results as given in PubChem BioAssay (NCI).
#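 The compound was tested at five concentrations on cells cultured in 96-well plates, with a 48-hour exposure period. Here, GI50 denotes the concentration required for 50% inhibition of growth. TGI: total growth inhibition.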
# How the values were obtained:
# Experiment in all cases: growth of human tumour cells (NCI), 48 h
# COLO 205 colon = system: COLO 205 colon
# MOLT-4 leukemia = system: MOLT-4 leukemia
# ACHN renal = system: ACHN renal
# K-562 leukemia = system: K-562 leukemia
# UACC-257 melanoma = system: UACC-257 melanoma
# EKVX NSCLC = system: EKVX NSCLC
# MALME-3M melanoma = system: MALME-3M melanoma
# OVCAR-5 ovarian = system: OVCAR-5 ovarian
# A498 renal = system: A498 renal
compound,measurement,setting,value
O=C1C=CC(=Nc2ccc3c(c2)C(Br)c2ccccc2-3)O1 (stereo unspecified),TGI,COLO 205 colon,> 100 µM
same,TGI,MOLT-4 leukemia,> 100 µM
same,TGI,ACHN renal,> 100 µM
same,TGI,K-562 leukemia,> 100 µM
same,TGI,UACC-257 melanoma,> 100 µM
same,TGI,EKVX NSCLC,> 100 µM
same,TGI,MALME-3M melanoma,> 100 µM
Clc1ccc(C2N3CCCCC3[C@@H]3c4[nH]c5ccccc5c4CCN23)cc1 (stereo partly specified),TGI,MOLT-4 leukemia,> 100 µM
same,TGI,ACHN renal,> 100 µM
same,TGI,K-562 leukemia,> 100 µM
same,TGI,UACC-257 melanoma,> 100 µM
same,TGI,EKVX NSCLC,> 100 µM
same,TGI,MALME-3M melanoma,90.4 µM
same,TGI,OVCAR-5 ovarian,> 100 µM
same,TGI,A498 renal,> 100 µM
CC12CC[C@@H](C(C)(C)O)C1[C@@H](O)CC1(C)C2CCC2[C@@]3(C)CC[C@H](O)C(C)(C)C3C(O)C[C@]21C (stereo partly specified),TGI,COLO 205 colon,66.7 µM
same,TGI,ACHN renal,29.1 µM
same,TGI,K-562 leukemia,24.5 µM
same,TGI,EKVX NSCLC,29 µM
same,TGI,MALME-3M melanoma,32.1 µM
same,TGI,OVCAR-5 ovarian,31.2 µM
same,TGI,A498 renal,32.3 µM
N#CC(C(=N/O)/C(=N/O)C(C#N)c1ccc(Cl)cc1)c1ccc(Cl)cc1 (stereo unspecified),TGI,COLO 205 colon,> 100 µM
same,TGI,ACHN renal,> 100 µM
same,TGI,UACC-257 melanoma,> 100 µM
same,TGI,EKVX NSCLC,> 100 µM
same,TGI,MALME-3M melanoma,> 100 µM
same,TGI,OVCAR-5 ovarian,> 100 µM
same,TGI,A498 renal,> 100 µM
CCN(CC)c1c(C(=O)/C=C/c2ccccc2)c(-c2ccccc2)nn(C)c1=O,TGI,COLO 205 colon,> 100 µM
same,TGI,ACHN renal,> 100 µM
same,TGI,K-562 leukemia,> 100 µM
same,TGI,UACC-257 melanoma,> 100 µM
same,TGI,EKVX NSCLC,> 100 µM
same,TGI,MALME-3M melanoma,> 100 µM
same,TGI,OVCAR-5 ovarian,> 100 µM
same,TGI,A498 renal,> 100 µM
OCCC1(O)CCC(O)CC1 (stereo unspecified),TGI,COLO 205 colon,> 100 µM
same,TGI,MOLT-4 leukemia,> 100 µM
same,TGI,K-562 leukemia,> 100 µM
same,TGI,UACC-257 melanoma,> 100 µM
same,TGI,EKVX NSCLC,> 100 µM
same,TGI,MALME-3M melanoma,> 100 µM
same,TGI,OVCAR-5 ovarian,> 100 µM
same,TGI,A498 renal,> 100 µM
CC1(C)CC(/C=C2/OC(=O)c3ccccc32)=C(C#N)C(=O)O1,TGI,COLO 205 colon,> 100 µM
same,TGI,MOLT-4 leukemia,> 100 µM
same,TGI,ACHN renal,> 100 µM
same,TGI,K-562 leukemia,> 100 µM
same,TGI,UACC-257 melanoma,> 100 µM
same,TGI,EKVX NSCLC,> 100 µM
same,TGI,MALME-3M melanoma,> 100 µM
same,TGI,OVCAR-5 ovarian,> 100 µM
Cc1ccc(S(=O)(=O)C(CC(=O)N2CCCC2)C(=O)c2ccccc2)cc1 (stereo unspecified),TGI,COLO 205 colon,> 100 µM
same,TGI,MOLT-4 leukemia,> 100 µM
same,TGI,ACHN renal,> 100 µM
same,TGI,K-562 leukemia,> 100 µM
same,TGI,UACC-257 melanoma,> 100 µM
same,TGI,MALME-3M melanoma,> 100 µM
same,TGI,OVCAR-5 ovarian,> 100 µM
O=C(CI)NC1Oc2ccccc2-c2oc(=O)c(-c3ccccc3)cc21 (stereo unspecified),GI50,COLO 205 colon,1.81 µM
same,TGI,COLO 205 colon,3.92 µM
same,GI50,K-562 leukemia,1.32 µM
same,TGI,K-562 leukemia,11.9 µM
same,GI50,UACC-257 melanoma,2.07 µM
same,TGI,UACC-257 melanoma,4.84 µM
same,GI50,MALME-3M melanoma,1.73 µM
same,TGI,MALME-3M melanoma,3.27 µM
same,GI50,A498 renal,1.85 µM
same,TGI,A498 renal,3.62 µM
COC1C(CN[N+](=O)CC2OC3OC(C)(C)OC3C2OC)OC2OC(C)(C)OC21 (stereo unspecified),TGI,COLO 205 colon,> 100 µM
same,TGI,MOLT-4 leukemia,> 100 µM
same,TGI,ACHN renal,> 100 µM
same,TGI,UACC-257 melanoma,> 100 µM
same,TGI,EKVX NSCLC,> 100 µM
same,TGI,MALME-3M melanoma,> 100 µM
same,TGI,OVCAR-5 ovarian,> 100 µM
same,TGI,A498 renal,> 100 µM
CCCCCCCCCCCC(=O)CC(=O)c1c(O)cccc1O,TGI,COLO 205 colon,31.2 µM
same,TGI,MOLT-4 leukemia,41.9 µM
same,TGI,ACHN renal,35.2 µM
same,TGI,K-562 leukemia,76.4 µM
same,TGI,UACC-257 melanoma,34.5 µM
same,TGI,EKVX NSCLC,33.4 µM
same,TGI,MALME-3M melanoma,32.6 µM
same,TGI,OVCAR-5 ovarian,36.4 µM
CCCCNC1=C(C(=O)OCC)C(=O)CO1,TGI,COLO 205 colon,> 100 µM
same,TGI,MOLT-4 leukemia,> 100 µM
same,TGI,ACHN renal,> 100 µM
same,TGI,K-562 leukemia,> 100 µM
same,TGI,UACC-257 melanoma,> 100 µM
same,TGI,EKVX NSCLC,> 100 µM
same,TGI,MALME-3M melanoma,> 100 µM
same,TGI,OVCAR-5 ovarian,> 100 µM
CCOC(=O)NC(=O)c1cn(C2OC(COC(=O)CCCCCCCCC(=O)OCC3OC(n4cc(C(=O)NC(=O)OCC)c(=O)[nH]c4=O)C(O)C3O)C(O)C2O)c(=O)[nH]c1=O (stereo unspecified),TGI,MOLT-4 leukemia,> 100 µM
same,TGI,ACHN renal,> 100 µM
same,TGI,K-562 leukemia,> 100 µM
same,TGI,UACC-257 melanoma,> 100 µM
same,TGI,EKVX NSCLC,> 100 µM
same,TGI,MALME-3M melanoma,> 100 µM
same,TGI,OVCAR-5 ovarian,> 100 µM
same,TGI,A498 renal,> 100 µM
CCCCN(CCCC)C(=O)C(=O)C(C#N)c1ccc(C)cc1 (stereo unspecified),TGI,MOLT-4 leukemia,> 100 µM
same,TGI,ACHN renal,> 100 µM
same,TGI,K-562 leukemia,> 100 µM
same,TGI,UACC-257 melanoma,> 100 µM
same,TGI,EKVX NSCLC,> 100 µM
same,TGI,MALME-3M melanoma,> 100 µM
same,TGI,OVCAR-5 ovarian,> 100 µM
same,TGI,A498 renal,> 100 µM
N#C/C(=C/c1ccsc1)C(=O)c1ccccc1,TGI,COLO 205 colon,> 100 µM
same,TGI,MOLT-4 leukemia,> 100 µM
same,TGI,ACHN renal,> 100 µM
same,TGI,K-562 leukemia,> 100 µM
same,TGI,UACC-257 melanoma,> 100 µM
same,TGI,EKVX NSCLC,> 100 µM
same,TGI,MALME-3M melanoma,> 100 µM
same,TGI,OVCAR-5 ovarian,> 100 µM
COc1ccc2[nH]c3c(C)c4c(c(C)c3c2c1)CN(C)CC4,TGI,COLO 205 colon,31.2 µM
same,TGI,MOLT-4 leukemia,74.1 µM
same,TGI,ACHN renal,35 µM
same,TGI,K-562 leukemia,25.8 µM
same,TGI,UACC-257 melanoma,32.7 µM
same,TGI,MALME-3M melanoma,35 µM
same,TGI,OVCAR-5 ovarian,54.2 µM
same,TGI,A498 renal,32.2 µM
COc1cc(C2c3cc4c(cc3C(NCC(O)CO)C3COC(=O)[C@H]23)OCO4)cc(OC)c1OC (stereo partly specified),TGI,COLO 205 colon,0.364 µM
same,TGI,MOLT-4 leukemia,> 100 µM
same,TGI,ACHN renal,> 100 µM
same,TGI,K-562 leukemia,> 100 µM
same,TGI,UACC-257 melanoma,> 100 µM
same,TGI,EKVX NSCLC,> 100 µM
same,TGI,MALME-3M melanoma,> 100 µM
same,TGI,OVCAR-5 ovarian,> 100 µM
COc1ccc2cc1Oc1ccc(cc1)CC1c3cc(c(OC)cc3CCN1C)Oc1c3c(cc4c1C(C2)N(C)CC4)OCO3 (stereo unspecified),TGI,COLO 205 colon,18.4 µM
same,TGI,MOLT-4 leukemia,21.5 µM
same,TGI,ACHN renal,13.9 µM
same,TGI,K-562 leukemia,4.17 µM
same,TGI,EKVX NSCLC,29.8 µM
same,TGI,OVCAR-5 ovarian,32.4 µM
COC(=O)C1=C(C(=O)OC)C2C=CC1C1C(Cl)=C(Cl)C21 (stereo unspecified),TGI,COLO 205 colon,> 100 µM
same,TGI,MOLT-4 leukemia,> 100 µM
same,TGI,ACHN renal,> 100 µM
same,TGI,K-562 leukemia,> 100 µM
same,TGI,UACC-257 melanoma,> 100 µM
same,TGI,EKVX NSCLC,> 100 µM
same,TGI,MALME-3M melanoma,> 100 µM
same,TGI,OVCAR-5 ovarian,> 100 µM
CCCCCCCCCC[C@@H](O)[C@@H]1CC[C@H]([C@H]2CC[C@@H]([C@@H](O)CCCCCCCCCC[C@H]3CC(CC(C)=O)C(=O)O3)O2)O1 (stereo partly specified),TGI,COLO 205 colon,28.8 µM
same,TGI,MOLT-4 leukemia,18.8 µM
same,TGI,K-562 leukemia,33.4 µM
same,TGI,UACC-257 melanoma,26.7 µM
same,TGI,EKVX NSCLC,78 µM
same,TGI,MALME-3M melanoma,19.1 µM
same,TGI,OVCAR-5 ovarian,74.3 µM
same,TGI,A498 renal,71.9 µM
